Common to all, as to type: biochemical
For test [1], the target named is T1, TXK (Homo sapiens, UniProt P42681).
T1 sequence (P42681 1-527): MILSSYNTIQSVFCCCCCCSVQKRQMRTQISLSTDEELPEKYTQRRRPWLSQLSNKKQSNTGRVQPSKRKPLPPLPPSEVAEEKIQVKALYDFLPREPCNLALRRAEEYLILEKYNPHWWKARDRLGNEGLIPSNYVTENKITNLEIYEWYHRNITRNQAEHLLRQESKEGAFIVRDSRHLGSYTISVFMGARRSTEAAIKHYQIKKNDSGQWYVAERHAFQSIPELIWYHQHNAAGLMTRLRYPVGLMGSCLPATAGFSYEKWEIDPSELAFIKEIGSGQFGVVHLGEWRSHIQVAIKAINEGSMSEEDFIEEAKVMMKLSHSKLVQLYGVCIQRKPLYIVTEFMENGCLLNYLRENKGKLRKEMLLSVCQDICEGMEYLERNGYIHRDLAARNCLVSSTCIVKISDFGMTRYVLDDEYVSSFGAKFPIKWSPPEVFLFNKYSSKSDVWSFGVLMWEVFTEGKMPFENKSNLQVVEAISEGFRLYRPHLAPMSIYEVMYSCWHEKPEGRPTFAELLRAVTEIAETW
Put plainly: TXK IC50 kinase inhibition assay.

Test [2] has as its target T2, ITK (Homo sapiens, UniProt Q08881).
T2 sequence (Q08881 1-620): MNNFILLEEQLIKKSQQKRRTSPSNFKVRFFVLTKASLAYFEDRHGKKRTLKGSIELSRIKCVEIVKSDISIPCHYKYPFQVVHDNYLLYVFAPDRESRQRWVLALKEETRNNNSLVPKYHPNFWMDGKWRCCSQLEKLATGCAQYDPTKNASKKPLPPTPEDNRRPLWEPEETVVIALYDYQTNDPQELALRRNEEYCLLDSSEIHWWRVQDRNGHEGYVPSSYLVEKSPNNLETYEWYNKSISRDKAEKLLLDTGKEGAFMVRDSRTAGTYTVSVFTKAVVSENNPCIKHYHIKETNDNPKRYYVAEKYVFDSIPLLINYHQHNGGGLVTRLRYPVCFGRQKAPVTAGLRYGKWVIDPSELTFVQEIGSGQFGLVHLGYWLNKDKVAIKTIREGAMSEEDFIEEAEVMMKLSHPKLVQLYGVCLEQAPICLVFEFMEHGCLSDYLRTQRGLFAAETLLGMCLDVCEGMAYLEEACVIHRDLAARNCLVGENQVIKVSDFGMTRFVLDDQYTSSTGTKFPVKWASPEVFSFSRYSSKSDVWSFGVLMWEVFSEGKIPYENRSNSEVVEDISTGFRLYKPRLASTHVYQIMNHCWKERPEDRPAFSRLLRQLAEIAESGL
Put plainly: ITK IC50 kinase inhibition assay.

Test [3] concerns the target T3, JAK3 (Homo sapiens, UniProt P52333).
T3 sequence (P52333 1-1124): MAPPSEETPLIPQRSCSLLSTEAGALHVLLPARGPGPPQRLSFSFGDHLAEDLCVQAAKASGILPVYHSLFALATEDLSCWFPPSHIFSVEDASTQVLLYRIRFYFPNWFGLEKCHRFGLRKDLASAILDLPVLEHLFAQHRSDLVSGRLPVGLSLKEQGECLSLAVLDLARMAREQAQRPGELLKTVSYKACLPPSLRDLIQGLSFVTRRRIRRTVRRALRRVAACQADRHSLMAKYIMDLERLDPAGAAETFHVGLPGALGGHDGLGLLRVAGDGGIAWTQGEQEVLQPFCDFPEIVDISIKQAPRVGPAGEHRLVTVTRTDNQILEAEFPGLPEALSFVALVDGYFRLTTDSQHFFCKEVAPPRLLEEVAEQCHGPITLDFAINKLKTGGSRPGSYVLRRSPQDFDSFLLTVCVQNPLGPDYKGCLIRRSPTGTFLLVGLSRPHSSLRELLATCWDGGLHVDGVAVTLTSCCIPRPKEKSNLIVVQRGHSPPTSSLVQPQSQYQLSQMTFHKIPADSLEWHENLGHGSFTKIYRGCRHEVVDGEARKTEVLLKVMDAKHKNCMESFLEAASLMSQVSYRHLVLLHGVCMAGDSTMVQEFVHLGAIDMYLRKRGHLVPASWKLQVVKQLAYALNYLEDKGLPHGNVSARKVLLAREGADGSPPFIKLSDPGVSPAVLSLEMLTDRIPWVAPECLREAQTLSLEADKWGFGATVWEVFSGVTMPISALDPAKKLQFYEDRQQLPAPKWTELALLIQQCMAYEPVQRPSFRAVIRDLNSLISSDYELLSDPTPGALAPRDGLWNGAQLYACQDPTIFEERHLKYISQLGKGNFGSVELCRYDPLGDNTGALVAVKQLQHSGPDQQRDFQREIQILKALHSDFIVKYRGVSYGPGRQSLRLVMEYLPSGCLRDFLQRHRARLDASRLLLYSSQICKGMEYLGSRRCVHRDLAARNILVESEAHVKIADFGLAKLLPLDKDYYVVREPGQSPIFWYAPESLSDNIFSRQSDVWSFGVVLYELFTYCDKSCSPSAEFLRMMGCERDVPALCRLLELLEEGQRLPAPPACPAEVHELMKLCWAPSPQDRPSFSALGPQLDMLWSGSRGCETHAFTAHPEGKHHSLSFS
Put plainly: JAK3 IC50 kinase inhibition assay.

Test [4] addresses BTK (Homo sapiens, UniProt Q06187). Put plainly: BTK IC50 kinase inhibition assay.

Broadly, the IC50 is the concentration that gives 50% inhibition. Lower therefore signals greater potency in that assay.

SMILES strings stand for the structures.

BTK, sequence (Q06187 whole entry): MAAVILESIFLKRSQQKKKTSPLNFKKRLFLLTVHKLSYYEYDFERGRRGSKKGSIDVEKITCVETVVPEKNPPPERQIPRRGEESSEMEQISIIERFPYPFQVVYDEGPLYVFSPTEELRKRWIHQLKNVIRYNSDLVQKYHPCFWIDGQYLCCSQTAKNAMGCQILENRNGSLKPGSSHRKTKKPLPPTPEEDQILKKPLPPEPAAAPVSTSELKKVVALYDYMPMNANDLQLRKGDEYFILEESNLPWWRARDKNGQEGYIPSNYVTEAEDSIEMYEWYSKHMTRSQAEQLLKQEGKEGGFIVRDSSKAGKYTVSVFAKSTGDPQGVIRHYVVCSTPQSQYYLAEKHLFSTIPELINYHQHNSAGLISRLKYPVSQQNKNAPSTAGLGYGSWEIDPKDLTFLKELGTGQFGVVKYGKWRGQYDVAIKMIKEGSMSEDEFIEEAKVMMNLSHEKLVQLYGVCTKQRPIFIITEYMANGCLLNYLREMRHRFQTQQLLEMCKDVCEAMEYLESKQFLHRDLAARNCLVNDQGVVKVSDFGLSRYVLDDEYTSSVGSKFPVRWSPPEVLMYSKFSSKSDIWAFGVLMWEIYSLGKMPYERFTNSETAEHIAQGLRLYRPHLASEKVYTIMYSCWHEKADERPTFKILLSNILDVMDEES

In the case of `C=CC(=O)N1CCC[C@@H](n2nc(-c3cccc(Oc4ccccc4)c3)c3cncnc32)C1` [Compound A1, (R)-1-(3-(3-(3-phenoxyphenyl)-1H-pyrazolo[3,4-d]pyrimidin-1-yl)piperidin-1-yl)prop-2-en-1-one], the concentration for half-maximal inhibition (IC50) in test [1] is 100 to 500 nM; in test [2], > 500 nM; in test [3], > 500 nM; in test [4], < 100 nM.

Consider `C=CC(=O)N1CCC[C@@H](n2nc(-c3ccc(Oc4ccccc4)cc3F)c3cncnc32)C1` [Compound A2, (R)-1-(3-(3-(2-fluoro-4-phenoxyphenyl)-1H-pyrazolo[3,4-d]pyrimidin-1-yl)piperidin-1-yl)prop-2-en-1-one], for which the IC50 was < 100 nM in test [1], > 500 nM in test [2], 100 to 500 nM in test [3] and < 100 nM in test [4].

`C=CC(=O)N1CCC[C@@H](n2nc(-c3ccc(Oc4ccccc4)c(F)c3)c3cncnc32)C1` [Compound A3, (R)-1-(3-(3-(3-fluoro-4-phenoxyphenyl)-1H-pyrazolo[3,4-d]pyrimidin-1-yl)piperidin-1-yl)prop-2-en-1-one]: the IC50 in test [1] was < 100 nM; in test [2], > 500 nM; in test [3], > 500 nM; in test [4], < 100 nM.

For `C=CC(=O)N1CCC[C@@H](n2nc(-c3ccc(Oc4ccccc4)cc3C)c3cncnc32)C1` [Compound A4, (R)-1-(3-(3-(2-methyl-4-phenoxyphenyl)-1H-pyrazolo[3,4-d]pyrimidin-1-yl)piperidin-1-yl)prop-2-en-1-one], the IC50 in test [1] was < 100 nM; in test [2], > 500 nM; in test [3], > 500 nM; in test [4] it was < 100 nM.

On to `C=CC(=O)N1CCC[C@@H](n2nc(-c3ccc(Oc4ccccc4)c(C)c3)c3cncnc32)C1` [Compound A5, (R)-1-(3-(3-(3-methyl-4-phenoxyphenyl)-1H-pyrazolo[3,4-d]pyrimidin-1-yl)piperidin-1-yl)prop-2-en-1-one], for which the half-maximal inhibitory concentration (IC50) in test [1] is 100 to 500 nM; in test [2] it was > 500 nM; in test [3], > 500 nM; in test [4], < 100 nM.

For the compound `C=CC(=O)N1CC[C@@H](n2nc(-c3ccc(Oc4ccccc4)cc3)c3cncnc32)C1` [Compound A6, (R)-1-(3-(3-(4-phenoxyphenyl)-1H-pyrazolo[3,4-d]pyrimidin-1-yl)pyrrolidin-1-yl)prop-2-en-1-one], the IC50 in test [1] is < 100 nM; in test [2], > 500 nM; in test [3], > 500 nM; in test [4], < 100 nM.

`C=CC(=O)N1CCC[C@@H]1Cn1nc(-c2ccc(Oc3ccccc3)cc2)c2cncnc21` [Compound A7, (R)-1-(2-((3-(4-phenoxyphenyl)-1H-pyrazolo[3,4-d]pyrimidin-1-yl)methyl)pyrrolidin-1-yl)prop-2-en-1-one]: the IC50 was 100 to 500 nM in test [1], > 500 nM in test [2], > 500 nM in test [3] and < 100 nM in test [4].

For the compound `C=CC(=O)N1CCC[C@H]1Cn1nc(-c2ccc(Oc3ccccc3)cc2)c2cncnc21` [Compound A8, (S)-1-(2-((3-(4-phenoxyphenyl)-1H-pyrazolo[3,4-d]pyrimidin-1-yl)methyl)pyrrolidin-1-yl)prop-2-en-1-one], the IC50 in test [1] is < 100 nM; in test [2] it was > 500 nM; in test [3], > 500 nM; in test [4], < 100 nM.

Take `C=CC(=O)N1CCC[C@@H](n2nc(-c3ccc(Oc4ccccc4)cc3)c3cncnc32)C1` [Compound A9, (R)-1-(3-(3-(4-phenoxyphenyl)-1H-pyrazolo[3,4-d]pyrimidin-1-yl)piperidin-1-yl)prop-2-en-1-one]: the IC50 was < 100 nM in test [1], > 500 nM in test [2], > 500 nM in test [3] and < 100 nM in test [4].

For the compound `C=CC(=O)N1CC[C@H](n2nc(-c3ccc(Oc4ccccc4)cc3)c3cncnc32)C1` [Compound A12, (S)-1-(3-(3-(4-phenoxyphenyl)-1H-pyrazolo[3,4-d]pyrimidin-1-yl)pyrrolidin-1-yl)prop-2-en-1-one], the IC50 in test [1] was 100 to 500 nM; in test [2], > 500 nM; in test [3], > 500 nM; in test [4], < 100 nM.

As for `C=CC(=O)N1CC(n2nc(-c3ccc(Oc4ccccc4)cc3)c3cncnc32)C1` [Compound A13, 1-(3-(3-(4-phenoxyphenyl)-1H-pyrazolo[3,4-d]pyrimidin-1-yl)azetidin-1-yl)prop-2-en-1-one], the IC50 was 100 to 500 nM in test [1], > 500 nM in test [2], > 500 nM in test [3] and 100 to 500 nM in test [4].

For `C=CC(=O)N1CC[C@@H](Cn2nc(-c3ccc(Oc4ccccc4)cc3)c3cncnc32)C1` [Compound A14, (R)-1-(3-((3-(4-phenoxyphenyl)-1H-pyrazolo[34-d]pyrimidin-1-yl)methyl)pyrrolidin-1-yl)prop-2-en-1-one], the IC50 is 100 to 500 nM in test [1], > 500 nM in test [2], > 500 nM in test [3] and 100 to 500 nM in test [4].

As for `C=CC(=O)N1CC[C@H](Cn2nc(-c3ccc(Oc4ccccc4)cc3)c3cncnc32)C1` [Compound A15, (S)-1-(3-((3-(4-phenoxyphenyl)-1H-pyrazolo[3,4-d]pyrimidin-1-yl)methyl)pyrrolidin-1-yl)prop-2-en-1-one], the 50% inhibitory concentration (IC50) in test [1] is 100 to 500 nM; in test [2], > 500 nM; in test [3], > 500 nM; in test [4], < 100 nM.

For `CC#CC(=O)N1CCC[C@@H](n2nc(-c3ccc(Oc4ccccc4)cc3)c3cncnc32)C1` [Compound A16, (R)-1-(3-(3-(4-phenoxyphenyl)-1H-pyrazolo[3,4-d]pyrimidin-1-yl)piperidin-1-yl)but-2-yn-1-one], the IC50 in test [1], in test [2], in test [3] and in test [4] was > 500 nM throughout.

In the case of `C=CC(=O)N1CC[C@@H](n2nc(-c3ccc(Oc4ccccc4)cc3F)c3cncnc32)C1` [Compound A17, (R)-1-(3-(3-(2-fluoro-4-phenoxyphenyl)-1H-pyrazolo[3,4-d]pyrimidin-1-yl)pyrrolidin-1-yl)prop-2-en-1-one], the half-inhibitory concentration (IC50) in test [1] was < 100 nM; in test [2] it was > 500 nM; in test [3] it was > 500 nM; in test [4], < 100 nM.

With `CC#CC(=O)N1CC[C@@H](n2nc(-c3ccc(Oc4ccccc4)cc3)c3cncnc32)C1` [Compound A18, (R)-1-(3-(3-(4-phenoxyphenyl)-1H-pyrazolo[3,4-d]pyrimidin-1-yl)pyrrolidin-1-yl)but-2-yn-1-one], the half-maximal inhibitory concentration (IC50) in test [1] is > 500 nM; in test [2], > 500 nM; in test [3], > 500 nM; in test [4], 100 to 500 nM.

The values are drawn from patent publication US10870652B2, “Compounds and methods for modulating bruton's tyrosine kinase” (CORVUS PHARMACEUTICALS, INC., priority 2016, dated 2020).
